Laboratory results as given in patent US9371265B2, “Compositions and methods related to inhibitors of JAK kinase” (EP PHARMA, INC., priority 2012, dated 2016).
Values joined by “and” are separate entries in the source; they are usually repeats but may differ in a detail not shown here. Identical values can stand only once.

Key:
[1] = Oral pharmacokinetics in rats (plasma, LC-MS/MS); type: in vivo, Sprague Dawley rats; conditions: single oral dose of 200 mg/kg
Method: FIGS. 9A-9B Pharmacokinetics and efficacy of EP009 in vivo. (A) Sprague Dawley rats were administered EP009 by oral gavage (200 mg/kg) and pharmacokinetics measured by analysis of plasma concentrations at indicated time points. Values represent mean concentrations, while error bars represent the standard deviation (n=5). (B) Therapeutic study of EP009 in SU-DHL-1 model in SCID/NOD mice.
EP009 (200 mg/kg) was administered orally to Sprague Dawley rats (Texas Animal Specialties) of ˜200 g weight (n=5) after an overnight fast. Blood (˜200 μl) was drawn at 0.5, 1, 2, 4, 8 and 24 hours after dosing and plasma was collected and snap-frozen in liquid nitrogen. EP009 plasma concentrations were determined by a liquid chromatography tandem mass spectrometry (LC-MS/MS) system. This system included a HPLC (Shimadzu Scientific Corporation) with an ACE C18 column (50×2.1 mm, 5 um) and an API-4000 (triple-quadruple) mass spectrometer (ABSciex, Inc) with an electrospray ionization source. A positive multiple reaction monitoring (MRM) scan was applied. The mobile phase A and B used in this study were 0.1% formic acid in 5 mM ammonium acetate and 0.1% formic acid in 100% acetonitrile. Plasma samples (50 μL) were mixed with 50 μL of blank plasma and 300 μL of internal standard solution (Verapamil, 20 ng/mL in 100% acetonitrile). After vortexing for 1 min and centrifuging for 5 min at 16,000×g, 300 μL supernatants were analyzed by LC-MS/MS. The limit of quantitation was 1 ng/mL of EP009 in plasma and the calibration range was from 1 to 2000 ng/mL.

AXL = AXL (Homo sapiens, UniProt P30530); assay: Kinase panel: AXL; type: biochemical; conditions: 10 μM EP009
Method: (§1) Achieving JAK3 selectivity remains a significant challenge in the development of new small molecules for the treatment of cancer and immune-derived diseases. As such, the inventors employed cell-based screening assays of small-molecule libraries based upon the chemical scaffold of the established JAK3 inhibitor NC1153 (Stepkowski et al., J Immunol. (2005), 175(7):4236-4246) EP009 (FIG. 2A) was selected as a lead compound due to improved intrinsic stability (>95% purity in various solvents at 37° C. for 24 hours; FIG. 3) and high-degree of JAK3 selectivity. To test JAK3 versus JAK2 specificity of EP009, the IL-2/JAK3-dependent Kit225, and IL-3/JAK2-dependent BaF/3 cell lines were used. Kit225 and BaF/3 cells growing in the presence of IL-2 or IL-3, respectively, were treated with ascending concentrations of EP009 for 12 hours and cellular JAK3 and JAK2 tyrosine phosphorylation levels detected by Western blot analysis (FIGS. 2B and 2C). Following densitometric analysis, EP009 was determined to dose-dependently reduce IL-2-mediated JAK3 tyrosine phosphorylation with a cellular 50% inhibitory concentration (IC50) between 10 and 20 μM (FIG. 2B). […] To globally evaluate specificity, the inhibitory activity of EP009 was measured against a panel of protein kinases distributed throughout the kinome using the scanEDGE profiling service (KINOMEscan). […]

CDK11 = CDK11 (Homo sapiens, UniProt Q9BWU1); assay: Kinase panel: CDK11; type: biochemical; conditions: 10 μM EP009
Method: as §1

DCAMKL1 = DCAMKL1 (Homo sapiens, UniProt O15075); assay: Kinase panel: DCAMKL1; type: biochemical; conditions: 10 μM EP009
Method: as §1

ERBB4 = ERBB4 (Homo sapiens, UniProt Q15303); assay: Kinase panel: ERBB4; type: biochemical; conditions: 10 μM EP009
Method: as §1

KIT = KIT (Homo sapiens, UniProt P10721); assay: Kinase panel: KIT; type: biochemical; conditions: 10 μM EP009
Method: as §1

KIT(V559D, T670I) = KIT(V559D, T670I) (Homo sapiens, UniProt P10721, T670I/V559D); assay: Kinase panel: KIT(V559D, T670I); type: biochemical; conditions: 10 μM EP009
Method: as §1

p38-beta = p38-beta (Homo sapiens, UniProt Q15759); assay: Kinase panel: p38-beta; type: biochemical; conditions: 10 μM EP009
Method: as §1

PIM3 = PIM3 (Homo sapiens, UniProt Q86V86); assay: Kinase panel: PIM3; type: biochemical; conditions: 10 μM EP009
Method: as §1

RET = RET (Homo sapiens, UniProt P07949); assay: Kinase panel: RET; type: biochemical; conditions: 10 μM EP009
Method: as §1

TSSK1B = TSSK1B (Homo sapiens, UniProt Q9BXA7); assay: Kinase panel: TSSK1B; type: biochemical; conditions: 10 μM EP009
Method: as §1

Sequence of ERBB4 (Q15303 26-1308): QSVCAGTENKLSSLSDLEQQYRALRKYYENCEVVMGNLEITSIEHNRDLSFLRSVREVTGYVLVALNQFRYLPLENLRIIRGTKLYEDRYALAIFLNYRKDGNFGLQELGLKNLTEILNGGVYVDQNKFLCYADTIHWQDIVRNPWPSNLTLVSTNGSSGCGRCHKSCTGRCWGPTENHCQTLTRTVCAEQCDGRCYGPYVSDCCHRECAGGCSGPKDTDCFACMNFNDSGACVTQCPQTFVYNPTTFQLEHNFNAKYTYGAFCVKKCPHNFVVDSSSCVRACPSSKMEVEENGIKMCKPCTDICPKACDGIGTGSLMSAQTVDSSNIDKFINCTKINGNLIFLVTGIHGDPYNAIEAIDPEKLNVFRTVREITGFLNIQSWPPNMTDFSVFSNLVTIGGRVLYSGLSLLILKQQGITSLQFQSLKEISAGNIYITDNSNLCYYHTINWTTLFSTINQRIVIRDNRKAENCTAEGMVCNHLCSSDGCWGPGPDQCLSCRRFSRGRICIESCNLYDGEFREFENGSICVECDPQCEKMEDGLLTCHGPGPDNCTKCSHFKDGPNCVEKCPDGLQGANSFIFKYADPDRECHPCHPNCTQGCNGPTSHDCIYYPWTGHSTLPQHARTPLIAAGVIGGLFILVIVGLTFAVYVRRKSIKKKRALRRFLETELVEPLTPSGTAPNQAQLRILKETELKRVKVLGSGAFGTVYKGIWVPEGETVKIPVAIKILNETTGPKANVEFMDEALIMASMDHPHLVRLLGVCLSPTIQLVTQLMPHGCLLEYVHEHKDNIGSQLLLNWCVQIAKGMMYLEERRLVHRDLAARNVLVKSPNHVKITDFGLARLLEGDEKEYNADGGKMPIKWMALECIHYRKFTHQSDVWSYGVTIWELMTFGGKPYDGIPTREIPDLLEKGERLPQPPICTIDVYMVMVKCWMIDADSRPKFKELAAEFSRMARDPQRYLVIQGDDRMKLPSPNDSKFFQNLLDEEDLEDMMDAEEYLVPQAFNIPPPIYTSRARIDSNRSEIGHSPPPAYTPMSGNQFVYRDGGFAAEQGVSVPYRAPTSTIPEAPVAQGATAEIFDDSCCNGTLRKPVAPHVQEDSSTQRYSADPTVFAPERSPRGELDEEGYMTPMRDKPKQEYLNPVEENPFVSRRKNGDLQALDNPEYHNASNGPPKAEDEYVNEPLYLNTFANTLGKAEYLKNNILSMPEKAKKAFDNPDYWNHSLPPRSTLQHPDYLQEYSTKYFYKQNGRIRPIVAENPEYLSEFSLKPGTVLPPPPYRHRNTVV
Sequence of TSSK1B (Q9BXA7 whole entry): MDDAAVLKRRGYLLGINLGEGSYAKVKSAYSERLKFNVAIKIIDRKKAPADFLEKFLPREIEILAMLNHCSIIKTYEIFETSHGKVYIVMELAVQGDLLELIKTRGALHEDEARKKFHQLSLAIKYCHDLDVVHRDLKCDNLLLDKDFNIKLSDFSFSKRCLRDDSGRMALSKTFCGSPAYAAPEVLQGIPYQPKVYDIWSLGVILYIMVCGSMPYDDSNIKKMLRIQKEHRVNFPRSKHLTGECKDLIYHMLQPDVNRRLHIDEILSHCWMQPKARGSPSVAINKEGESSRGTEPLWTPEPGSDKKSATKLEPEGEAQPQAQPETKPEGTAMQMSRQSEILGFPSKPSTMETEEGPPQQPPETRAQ
Sequence of KIT(V559D, T670I) (P10721 26-976 V559D/T670I): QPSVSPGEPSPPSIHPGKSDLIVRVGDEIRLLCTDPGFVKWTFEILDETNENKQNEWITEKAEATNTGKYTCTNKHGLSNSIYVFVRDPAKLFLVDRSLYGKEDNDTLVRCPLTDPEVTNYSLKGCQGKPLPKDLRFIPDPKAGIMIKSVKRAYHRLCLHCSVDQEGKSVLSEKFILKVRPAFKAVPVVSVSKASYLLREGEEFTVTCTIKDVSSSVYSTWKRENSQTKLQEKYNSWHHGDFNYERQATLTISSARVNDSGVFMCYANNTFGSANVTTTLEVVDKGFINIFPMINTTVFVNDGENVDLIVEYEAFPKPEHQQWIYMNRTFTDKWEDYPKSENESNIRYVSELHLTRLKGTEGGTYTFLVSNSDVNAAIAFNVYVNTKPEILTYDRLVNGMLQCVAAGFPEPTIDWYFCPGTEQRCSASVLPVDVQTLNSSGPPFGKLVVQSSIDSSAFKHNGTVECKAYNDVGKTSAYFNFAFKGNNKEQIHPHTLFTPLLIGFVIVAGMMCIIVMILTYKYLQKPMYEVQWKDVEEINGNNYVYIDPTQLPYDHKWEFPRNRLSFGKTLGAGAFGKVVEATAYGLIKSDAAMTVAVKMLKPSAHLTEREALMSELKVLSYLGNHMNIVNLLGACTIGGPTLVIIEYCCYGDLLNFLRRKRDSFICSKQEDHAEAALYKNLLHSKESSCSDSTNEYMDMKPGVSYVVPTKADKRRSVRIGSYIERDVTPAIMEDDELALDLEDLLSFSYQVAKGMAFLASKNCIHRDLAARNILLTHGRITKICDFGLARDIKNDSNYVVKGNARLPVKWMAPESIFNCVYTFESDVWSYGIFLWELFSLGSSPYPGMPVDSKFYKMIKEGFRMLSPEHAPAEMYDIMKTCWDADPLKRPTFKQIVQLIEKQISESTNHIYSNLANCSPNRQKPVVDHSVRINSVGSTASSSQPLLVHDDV
Sequence of DCAMKL1 (O15075 whole entry): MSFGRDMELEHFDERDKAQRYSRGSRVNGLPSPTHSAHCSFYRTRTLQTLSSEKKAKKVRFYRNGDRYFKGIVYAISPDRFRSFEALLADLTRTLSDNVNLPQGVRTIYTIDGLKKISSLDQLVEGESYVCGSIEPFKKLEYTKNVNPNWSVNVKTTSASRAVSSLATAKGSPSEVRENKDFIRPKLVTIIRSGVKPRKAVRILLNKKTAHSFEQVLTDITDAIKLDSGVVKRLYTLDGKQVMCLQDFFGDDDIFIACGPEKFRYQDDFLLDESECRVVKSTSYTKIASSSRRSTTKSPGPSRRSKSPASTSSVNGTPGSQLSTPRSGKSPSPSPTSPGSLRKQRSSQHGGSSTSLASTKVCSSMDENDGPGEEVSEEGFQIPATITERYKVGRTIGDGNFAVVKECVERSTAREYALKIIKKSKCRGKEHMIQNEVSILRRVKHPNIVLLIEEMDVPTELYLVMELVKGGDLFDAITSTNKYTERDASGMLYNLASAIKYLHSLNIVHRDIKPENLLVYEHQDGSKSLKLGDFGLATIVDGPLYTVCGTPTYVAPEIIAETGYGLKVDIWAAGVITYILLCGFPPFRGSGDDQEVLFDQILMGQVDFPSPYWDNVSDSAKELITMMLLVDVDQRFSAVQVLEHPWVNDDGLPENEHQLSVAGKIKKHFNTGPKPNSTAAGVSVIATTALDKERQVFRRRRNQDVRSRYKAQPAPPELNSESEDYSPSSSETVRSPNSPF
Sequence of CDK11 (Q9BWU1 whole entry): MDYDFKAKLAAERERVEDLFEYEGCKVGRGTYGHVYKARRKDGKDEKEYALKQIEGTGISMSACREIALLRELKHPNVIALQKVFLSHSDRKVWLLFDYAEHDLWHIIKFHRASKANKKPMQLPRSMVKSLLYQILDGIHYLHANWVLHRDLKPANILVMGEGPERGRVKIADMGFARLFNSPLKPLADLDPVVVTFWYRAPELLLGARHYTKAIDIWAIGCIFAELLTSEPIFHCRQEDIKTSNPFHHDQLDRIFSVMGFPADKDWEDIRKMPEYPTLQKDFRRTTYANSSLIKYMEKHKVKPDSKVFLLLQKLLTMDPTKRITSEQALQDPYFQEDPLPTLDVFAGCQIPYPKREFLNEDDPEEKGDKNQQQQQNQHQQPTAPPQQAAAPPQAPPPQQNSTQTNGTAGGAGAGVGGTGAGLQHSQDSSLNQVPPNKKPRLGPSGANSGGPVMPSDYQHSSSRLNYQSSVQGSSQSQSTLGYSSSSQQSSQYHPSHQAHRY
Sequence of KIT (P10721 26-976): as the sequence (P10721 26-976 V559D/T670I) above, with D534V, I645T counted along it
Sequence of p38-beta (Q15759 whole entry): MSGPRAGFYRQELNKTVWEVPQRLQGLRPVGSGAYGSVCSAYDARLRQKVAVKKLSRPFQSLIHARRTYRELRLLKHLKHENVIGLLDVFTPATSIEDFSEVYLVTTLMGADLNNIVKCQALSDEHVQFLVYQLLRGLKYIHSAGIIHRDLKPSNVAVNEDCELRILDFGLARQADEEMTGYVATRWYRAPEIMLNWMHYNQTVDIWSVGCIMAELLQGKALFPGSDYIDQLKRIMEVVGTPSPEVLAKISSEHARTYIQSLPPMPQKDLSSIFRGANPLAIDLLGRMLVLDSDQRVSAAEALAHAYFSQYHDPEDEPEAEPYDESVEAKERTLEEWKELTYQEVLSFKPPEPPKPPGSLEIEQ

Compound: C=C1CCCCCCCCCC(CO)C1=O (centres unmarked) [EP009, 2-(Hydroxymethyl)-12-methylenecyclododecanone]
- AUC(0-t) ([1]; Sprague Dawley, rat, plasma, read-out: area under the concentration-time curve (AUC-t)): 2110 ng·h/mL and 6.1 µM·h
- half-life ([1]; Sprague Dawley, rat, plasma, read-out: half-life (t1/2) (converted)): 1 h
- Cmax ([1]; Sprague Dawley, rat, plasma, read-out: peak plasma concentration (Cmax)): 2000 ng/mL and 5.74 µM
- plasma levels eight hours after dosing [1]: declined to the limit of detection
- Kinase Activity (% of Control) (AXL): 96 % of Control
- Kinase Activity (% of Control) (CDK11): 100 % of Control
- Kinase Activity (% of Control) (DCAMKL1): 100 % of Control
- Kinase Activity (% of Control) (ERBB4): 91 % of Control
- Kinase Activity (% of Control) (KIT): 100 % of Control
- Kinase Activity (% of Control) (KIT(V559D, T670I)): 94 % of Control
- Kinase Activity (% of Control) (p38-beta): 96 % of Control
- Kinase Activity (% of Control) (PIM3): 100 % of Control
- Kinase Activity (% of Control) (RET): 100 % of Control
- Kinase Activity (% of Control) (TSSK1B): 98 % of Control
